Measured values: patent publication US8884061B2, “Compositions and methods of use of electron transport system inhibitors” (priority 2006, dated 2014)
In brackets after ≈: the same amount, converted by molar mass.

Assays:
MenA = MenA (Mycobacterium tuberculosis, UniProt P9WIP3); assay: In vitro assay against MenA (membrane fractions); assay type: biochemical; conditions: membrane fractions from M. tuberculosis; 5 μM farnesyl diphosphate, 50 μM dihydroxynaphthoic acid, pH 8.5; read-out: IC50 (μmol) MenA
M. tuberculosis H37Rv [1] = assay: MIC, colorimetric microtiter plate method with Alamar blue; assay type: cell-based; conditions: Mycobacterium tuberculosis, read-out: MIC (μg/mL) M. tuberculosis
Protocol: Activity Against M. Tuberculosis
The minimum inhibitory concentration (MIC) of compounds were determined against H37Rv by a colorimetric microtiter plate based method with Alamar blue.

M. tuberculosis H37Rv [2] = assay: MIC, agar (7H11) dilution method; assay type: cell-based; conditions: Mycobacterium tuberculosis, H37RV, M. tuberculosis H37Rv, read-out: Minimum inhibitory concentrations (MIC)
M. tuberculosis Kurono = assay: MIC, agar (7H11) dilution method; assay type: cell-based; conditions: Mycobacterium tuberculosis; M. tuberculosis Kurono; agar (7H11) dilution; read-out: Minimum inhibitory concentrations (MIC)
M. bovis BCG Tokyo = assay: microbe, parasite or virus in culture; assay type: cell-based; conditions: Mycobacterium tuberculosis variant bovis BCG, BCG, read-out: Minimum inhibitory concentrations (MIC)
M. avium Flamingo = assay: MIC, agar (7H11) dilution method; assay type: cell-based; conditions: Mycobacterium avium, read-out: Minimum inhibitory concentrations (MIC)
[3] = tested on: M. intracellularae ATCC 15984; assay: MIC, agar (7H11) dilution method; assay type: cell-based; conditions: read-out: Minimum inhibitory concentrations (MIC)
M. kansasii NIHJ1619 = assay: MIC, agar (7H11) dilution method; assay type: cell-based; conditions: Mycobacterium kansasii, read-out: Minimum inhibitory concentrations (MIC)
M. aurum = assay: MIC, agar (7H11) dilution method; assay type: cell-based; conditions: Mycolicibacterium aurum, read-out: Minimum inhibitory concentrations (MIC)
M. fortuitum NIHJ1615 = assay: MIC, agar (7H11) dilution method; assay type: cell-based; conditions: Mycolicibacterium fortuitum, read-out: Minimum inhibitory concentrations (MIC)
M. smegmatis Takeo = assay: MIC, agar (7H11) dilution method; assay type: cell-based; conditions: Mycolicibacterium smegmatis, read-out: Minimum inhibitory concentrations (MIC)
[4] = table line r8 (2nd of 5 so labelled)
[5] = table line r9 (3rd of 5 so labelled)
[6] = table line r10 (4th of 5 so labelled)
[7] = table line r11 (5th of 5 so labelled)

Chain of MenA (P9WIP3 whole entry): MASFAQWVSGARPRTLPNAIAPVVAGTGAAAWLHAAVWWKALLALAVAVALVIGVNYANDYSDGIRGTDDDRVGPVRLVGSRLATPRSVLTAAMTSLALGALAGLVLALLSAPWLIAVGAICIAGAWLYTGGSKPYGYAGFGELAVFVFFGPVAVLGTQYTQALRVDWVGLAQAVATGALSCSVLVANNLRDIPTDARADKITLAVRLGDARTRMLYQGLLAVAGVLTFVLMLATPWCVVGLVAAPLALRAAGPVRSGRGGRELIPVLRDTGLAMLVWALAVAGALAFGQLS

SMILES	IC50 (MenA) [µM]	MIC (M. tuberculosis H37Rv [1]) [µg/mL]	other results
C=CCN(C)CCCCCCCOc1ccc(C(=O)c2ccc(Br)cc2)cc1 [Cpd 1, (4-(7-(allyl(methyl)amino)heptyloxy)phenyl)(4-bromophenyl)methanone]	12	5 (≈ 11.3 µM)	–
C=CCN(C)CCCCCCCCOc1ccc(C(=O)c2ccc(Br)cc2)cc1 [Cpd 2]	10	4 (≈ 8.73 µM)	–
C=CCN(C)CCCCCCCOc1ccc(C(O)c2ccc(Br)cc2)cc1 (centres unmarked) [Cpd 3]	15	5 (≈ 11.2 µM)	–
C=CCN(C)CCCCCCCCOc1ccc(C(O)c2ccc(Br)cc2)cc1 (centres unmarked) [Cpd 4]	12	7 (≈ 15.2 µM)	–
C=CCN(C)CCCCCCCCOc1ccc(C(=O)c2ccc(Cl)cc2)cc1 [Cpd 5, (4-(8-(Allyl(methyl)amino)octyloxy)phenyl)(4-chlorophenyl)methanone]	5	0.3 (≈ 0.725 µM)	–
C=CCN(C)CCCCCCCCOc1ccc(C(O)c2ccc(Cl)cc2)cc1 (centres unmarked) [Cpd 6, (4-(8-(allyl(methyl)amino)octyloxy)phenyl)(4-chlorophenyl)methanol]	10	3 (≈ 7.21 µM)	–
C=CCN(C)CCCCCCCCOc1ccc(C(=O)c2ccc(Cl)cc2Cl)cc1 [Cpd 7, (4-(8-(Allyl(methyl)amino)octyloxy)phenyl)(2,4-dichlorophenyl)methanone]	10	4 (≈ 8.92 µM)	–
C=CCN(C)CCCCCCCCOc1ccc(C(O)c2ccc(Cl)cc2Cl)cc1 (centres unmarked) [Cpd 8]	12	5 (≈ 11.1 µM)	–
C=CCN(C)CCCCCCCCOc1ccc(C(=O)c2ccc(Cl)cc2)c(Cl)c1 [Cpd 9]	4	0.6 (≈ 1.34 µM)	–
C=CCN(C)CCCCCCCCOc1ccc(C(O)c2ccc(Cl)cc2)c(Cl)c1 (centres unmarked) [Cpd 10, (4-(8-(allyl(methyl)amino)octyloxy)-2-chlorophenyl)(4-chlorophenyl)methanol]	< 2.5	0.6 (≈ 1.33 µM)	–
C#CCN(C)CCCCCCCCOc1ccc(C(=O)c2ccc(Cl)cc2)c(Cl)c1 [Cpd 11, (2-Chloro-4-(8-(methyl(prop-2-ynyl)amino)octyloxy)phenyl)(4-chlorophenyl)methanone]	15	12 (≈ 26.9 µM)	–
CN(CCCCCCCCOc1ccc(C(=O)c2ccc(Cl)cc2)c(Cl)c1)Cc1ccccc1 [Cpd 12]	13	12 (≈ 24.1 µM)	–
C=CCN(C)CCCCCCCCOc1ccc(C(=O)c2ccc(Cl)cc2)c(O)c1 [Cpd 13, (4-(8-(allyl(methyl)amino)octyloxy)-2-hydroxyphenyl)(4-chlorophenyl)methanone]	< 2.5	0.2 (≈ 0.465 µM)	–
NNC(=O)c1ccncc1 [INH, isoniazid, reference compound]	–	–	MIC (M. tuberculosis H37Rv [2]; [4]): 0.1 µg/mL (≈ 0.729 µM); MIC (M. tuberculosis H37Rv [2]; [5]): > 25 µg/mL; MIC (M. tuberculosis H37Rv [2]; [6]): 0.05 µg/mL (≈ 0.365 µM); MIC (M. tuberculosis H37Rv [2]; [7]): 0.1 µg/mL (≈ 0.729 µM); MIC (M. tuberculosis Kurono): 0.05 µg/mL (≈ 0.365 µM); MIC (M. bovis BCG Tokyo): 0.1 µg/mL (≈ 0.729 µM); MIC (M. avium Flamingo): > 25 µg/mL; MIC [3]: 12.5 µg/mL (≈ 91.1 µM); MIC (M. kansasii NIHJ1619): 12.5 µg/mL (≈ 91.1 µM); MIC (M. aurum): 6.25 µg/mL (≈ 45.6 µM); MIC (M. fortuitum NIHJ1615): 6.25 µg/mL (≈ 45.6 µM); MIC (M. smegmatis Takeo): 12.5 µg/mL (≈ 91.1 µM)
CO[C@H]1/C=C/O[C@@]2(C)Oc3c(C)c(O)c4c(O)c(c(/C=N/N5CCN(C)CC5)c(O)c4c3C2=O)NC(=O)/C(C)=C\C=C\[C@H](C)[C@H](O)[C@@H](C)[C@@H](O)[C@@H](C)[C@H](OC(C)=O)[C@@H]1C [RFP, Rifampicin, reference compound]	–	–	MIC (M. tuberculosis H37Rv [2]; [4]): 0.1 µg/mL (≈ 0.122 µM); MIC (M. tuberculosis H37Rv [2]; [5]): 0.2 µg/mL (≈ 0.243 µM); MIC (M. tuberculosis H37Rv [2]; [6]): > 25 µg/mL; MIC (M. tuberculosis H37Rv [2]; [7]): 0.2 µg/mL (≈ 0.243 µM); MIC (M. tuberculosis Kurono): 0.1 µg/mL (≈ 0.122 µM); MIC (M. bovis BCG Tokyo): 0.1 µg/mL (≈ 0.122 µM); MIC (M. avium Flamingo): 3.13 µg/mL (≈ 3.8 µM); MIC [3]: 3.13 µg/mL (≈ 3.8 µM); MIC (M. kansasii NIHJ1619): 3.13 µg/mL (≈ 3.8 µM); MIC (M. aurum): 0.78 µg/mL (≈ 0.948 µM); MIC (M. fortuitum NIHJ1615): > 25 µg/mL; MIC (M. smegmatis Takeo): > 25 µg/mL
